Source: patent US20040067507A1, “Liver inflammation predictive genes” (priority 2002, published 2004)
Where two headings read alike, the source gives them in different places.

Test system: Sprague Dawley rats Crl:CD
Format: in vivo, rat
From the text: In addition to the database described and utilized herein, other toxicology gene expression databases may be generated, and used to identify additional liver toxicity biomarkers, which may also be employed in the practice of the liver inflammation prediction methods of the invention. […] An example of compounds, dose levels, liver toxicity classifications and histopathology scores used in the Examples which follow are provided in Table 1. The compounds and dose levels are abbreviated in the Abbreviation Column. The Inflammation Score relates the histopathology liver inflammation, a score of “2” or higher indicates histopathology of increasing severity.
Identification of Correlating Genes: For the purpose of identifying candidate predictive genes, the database preferably includes histopathology scores for each animal which has been exposed to one or more agent(s). […] The scores are numerical scores that reflect the occurrence and severity of histopathological changes. These scores can be adjusted to have similar range to gene expression changes. […] Because the scores are numerical, they are suitable for use with a variety of statistical correlation and similarity measures.
Sprague Dawley rats Crl:CD from Charles River, Raleigh, N.C. were divided into treated rats that receive a specific concentration of the compound (see Table 1) and the control rats that only received the vehicle in which the compound is mixed (e.g., saline).
At specified timepoints (6 h, 24 h and 72 h) after administration (intraperitoneal route) of the compound, a set number of rats (usually 3 control and 3 treated) were euthanized and tissues collected. Each rat was heavily sedated with an overdose of CO2 by inhalation and a maximum amount of blood drawn. Exsanguination of the rat by this drawing of blood kills the rat. The method of collecting the tissues is very important and ensures preserving the quality of the mRNA in the tissues. The body of the rat was then opened up and prosectors rapidly removed the tissues (including liver) and immediately placed them into liquid nitrogen. […] The organs/tissues were then packaged into well-labeled plastic freezer quality bags and stored at −80 degrees until needed for isolation of the mRNA from a portion of the organ/tissue sample.
Correlation with Histopathology Scores: Histopathology scores for each animal (assigned on a compound-dose basis as indicated in Table 1) were entered with gene expression data by using the GeneSpring™ ‘Drawn Gene’ function. Correlations between inflammation histopathology scores and gene expression were conducted with the distance measures listed below: […]

[1] = 1 mg/kg i.p., 72 h, 1=no histopathology, 2 or higher=increasing severity
[2] = 2 mg/kg i.p., 72 h, 1=no histopathology, 2 or higher=increasing severity
[3] = 4 mg/kg i.p., 72 h, 1=no histopathology, 2 or higher=increasing severity
[4] = 0.25 ml/kg i.p., 72 h, 1=no histopathology, 2 or higher=increasing severity
[5] = 1 ml/kg i.p., 72 h, 1=no histopathology, 2 or higher=increasing severity
[6] = 16 mg/kg i.p., 72 h, 1=no histopathology, 2 or higher=increasing severity
[7] = Sprague Dawley Crl:CD, rat, in vivo, ip
[8] = 8 mg/kg i.p., 72 h, 1=no histopathology, 2 or higher=increasing severity
[9] = 30 mg/kg i.p., 72 h, 1=no histopathology, 2 or higher=increasing severity
[10] = 2.5 mg/kg i.p., 72 h, 1=no histopathology, 2 or higher=increasing severity
[11] = 10 mg/kg i.p., 72 h, 1=no histopathology, 2 or higher=increasing severity
[12] = 75 mg/kg i.p., 72 h, 1=no histopathology, 2 or higher=increasing severity
[13] = 250 mg/kg i.p., 72 h, 1=no histopathology, 2 or higher=increasing severity
[14] = Sprague Dawley Crl:CD, rat, in vivo
[15] = 0.5 mg/kg i.p., 72 h, 1=no histopathology, 2 or higher=increasing severity
[16] = 20 mg/kg i.p., 72 h, 1=no histopathology, 2 or higher=increasing severity
[17] = 12 mg/kg i.p., 72 h, 1=no histopathology, 2 or higher=increasing severity
[18] = 40 mg/kg i.p., 72 h, 1=no histopathology, 2 or higher=increasing severity
[19] = 160 mg/kg i.p., 72 h, 1=no histopathology, 2 or higher=increasing severity
[20] = 0.1 mg/kg i.p., 72 h, 1=no histopathology, 2 or higher=increasing severity
[21] = 0.4 mg/kg i.p., 72 h, 1=no histopathology, 2 or higher=increasing severity
[22] = 50 mg/kg i.p., 72 h, 1=no histopathology, 2 or higher=increasing severity
[23] = 200 mg/kg i.p., 72 h, 1=no histopathology, 2 or higher=increasing severity

[Cl][Cd][Cl] [cadmium chloride]
Liver Inflammation (1 mg/kg i.p., 72 h): no | Liver Necrosis (1 mg/kg i.p., 72 h): no | Inflamm. Score [1]: 1 | Necr. Score [1]: 1 | Liver Inflammation (2 mg/kg i.p., 72 h): no | Liver Necrosis (2 mg/kg i.p., 72 h): no | Inflamm. Score [2]: 1 | Necr. Score [2]: 1 | Liver Inflammation (4 mg/kg i.p., 72 h): yes | Liver Necrosis (4 mg/kg i.p., 72 h): yes | Inflamm. Score [3]: 2 | Necr. Score [3]: 3

ClC(Cl)(Cl)Cl [carbon tetrachloride]
Liver Inflammation (0.25 ml/kg i.p., 72 h): no | Liver Necrosis (0.25 ml/kg i.p., 72 h): yes | Inflamm. Score [4]: 1 | Necr. Score [4]: 3 | Liver Inflammation (1 ml/kg i.p., 72 h): yes | Liver Necrosis (1 ml/kg i.p., 72 h): yes | Inflamm. Score [5]: 3 | Necr. Score [5]: 6 | liver necrosis or necrosis with inflammation (high dose): produced liver necrosis or necrosis with inflammation | liver necrosis or necrosis with inflammation (low dose): not at the low dose

O=NN(CCCl)C(=O)NCCCl [carmustine]
Liver Inflammation (16 mg/kg i.p., 72 h): no | Liver Necrosis (16 mg/kg i.p., 72 h): no | Inflamm. Score [6]: 1 | Necr. Score [6]: 1

ClC(Cl)Cl [chloroform]
Inflamm. Score [7]: 1 | Necr. Score [7]: 1 | Liver Inflammation (rat, in vivo, ip): no | Liver Necrosis (rat, in vivo, ip): no

CN(C)CCCN1c2ccccc2Sc2ccc(Cl)cc21 [chlorpromazine]
Liver Inflammation (8 mg/kg i.p., 72 h): no | Liver Necrosis (8 mg/kg i.p., 72 h): no | Inflamm. Score [8]: 1 | Necr. Score [8]: 1 | Liver Inflammation (30 mg/kg i.p., 72 h): no | Liver Necrosis (30 mg/kg i.p., 72 h): no | Inflamm. Score [9]: 1 | Necr. Score [9]: 1

N.N.[Cl][Pt][Cl] [cisplatin]
Liver Inflammation (2.5 mg/kg i.p., 72 h): no | Liver Necrosis (2.5 mg/kg i.p., 72 h): no | Inflamm. Score [10]: 1 | Necr. Score [10]: 1 | Liver Inflammation (10 mg/kg i.p., 72 h): no | Liver Necrosis (10 mg/kg i.p., 72 h): no | Inflamm. Score [11]: 1 | Necr. Score [11]: 1

CCOC(=O)C(C)(C)Oc1ccc(Cl)cc1 [clofibrate]
Liver Inflammation (75 mg/kg i.p., 72 h): no | Liver Necrosis (75 mg/kg i.p., 72 h): no | Inflamm. Score [12]: 1 | Necr. Score [12]: 1 | Liver Inflammation (250 mg/kg i.p., 72 h): no | Liver Necrosis (250 mg/kg i.p., 72 h): no | Inflamm. Score [13]: 1 | Necr. Score [13]: 1

CN1CCN(C2=Nc3cc(Cl)ccc3Nc3ccccc32)CC1 [clozapine]
Inflamm. Score [14]: 1 | Necr. Score [14]: 1 | Liver Inflammation (rat, in vivo): no | Liver Necrosis (rat, in vivo): no

C[C@@H]1C[C@@H]([C@H](O)CC2CC(=O)NC(=O)C2)C(=O)[C@@H](C)C1 [cycloheximide]
Liver Inflammation (0.5 mg/kg i.p., 72 h): no | Liver Necrosis (0.5 mg/kg i.p., 72 h): no | Inflamm. Score [15]: 1 | Necr. Score [15]: 1 | Liver Inflammation (2 mg/kg i.p., 72 h): no | Liver Necrosis (2 mg/kg i.p., 72 h): no | Inflamm. Score [2]: 1 | Necr. Score [2]: 1

O=P1(N(CCCl)CCCl)NCCCO1 (stereo not drawn) [cyclophosphamide]
Inflamm. Score [14]: 1 | Necr. Score [14]: 1 | Liver Inflammation (rat, in vivo): no | Liver Necrosis (rat, in vivo): no

C[C@@H]1C[C@H]2[C@@H]3CCC4=CC(=O)C=C[C@]4(C)[C@@]3(F)[C@@H](O)C[C@]2(C)[C@@]1(O)C(=O)CO [dexamethasone]
Inflamm. Score [14]: 1 | Necr. Score [14]: 1 | Liver Inflammation (rat, in vivo): no | Liver Necrosis (rat, in vivo): no

O=C(O)c1cc(-c2ccc(F)cc2F)ccc1O [diflunisal]
Inflamm. Score [14]: 1 | Necr. Score [14]: 1 | Liver Inflammation (rat, in vivo): no | Liver Necrosis (rat, in vivo): no

CN(C)N=O [dimethylnitrosamine]
Liver Inflammation (20 mg/kg i.p., 72 h): yes | Liver Necrosis (20 mg/kg i.p., 72 h): yes | Inflamm. Score [16]: 4 | Necr. Score [16]: 9

COc1cccc2c1C(=O)c1c(O)c3c(c(O)c1C2=O)C[C@@](O)(C(=O)CO)C[C@@H]3O[C@H]1C[C@H](N)[C@H](O)[C@H](C)O1 [doxorubicin]
Liver Inflammation (12 mg/kg i.p., 72 h): no | Liver Necrosis (12 mg/kg i.p., 72 h): no | Inflamm. Score [17]: 1 | Necr. Score [17]: 1

CCC(=O)O[C@H]1[C@H](O[C@@H]2[C@@H](C)[C@H](O[C@H]3C[C@@](C)(OC)[C@@H](O)[C@H](C)O3)[C@@H](C)C(=O)O[C@H](CC)[C@@](C)(O)[C@H](O)[C@@H](C)C(=O)[C@H](C)C[C@@]2(C)O)O[C@H](C)C[C@@H]1N(C)C [erythromycin estolate]
Liver Inflammation (40 mg/kg i.p., 72 h): no | Liver Necrosis (40 mg/kg i.p., 72 h): no | Inflamm. Score [18]: 1 | Necr. Score [18]: 1 | Liver Inflammation (160 mg/kg i.p., 72 h): no | Liver Necrosis (160 mg/kg i.p., 72 h): no | Inflamm. Score [19]: 1 | Necr. Score [19]: 1

C[C@]12CC[C@@H]3c4ccc(O)cc4CC[C@H]3[C@@H]1CC[C@@H]2O [estradiol]
Liver Inflammation (0.1 mg/kg i.p., 72 h): no | Liver Necrosis (0.1 mg/kg i.p., 72 h): no | Inflamm. Score [20]: 1 | Necr. Score [20]: 1 | Liver Inflammation (0.4 mg/kg i.p., 72 h): no | Liver Necrosis (0.4 mg/kg i.p., 72 h): no | Inflamm. Score [21]: 1 | Necr. Score [21]: 1

CCO [ethanol]
Inflamm. Score [7]: 1 | Necr. Score [7]: 1 | Liver Inflammation (rat, in vivo, ip): no | Liver Necrosis (rat, in vivo, ip): no

Nc1nc(O)c2ncn(COC(CO)CO)c2n1 [gancyclovir]
Liver Inflammation (50 mg/kg i.p., 72 h): no | Liver Necrosis (50 mg/kg i.p., 72 h): no | Inflamm. Score [22]: 1 | Necr. Score [22]: 1 | Liver Inflammation (200 mg/kg i.p., 72 h): no | Liver Necrosis (200 mg/kg i.p., 72 h): no | Inflamm. Score [23]: 1 | Necr. Score [23]: 1
